Laboratory results published in patent US20050130978A1, “Novel crystal of quinoxalinedione derivative anhydride” (priority 2002, published 2005).

Experiments:
[1] = cited from earlier work
[2] = test system: AMPA receptor; settings: tautomer, salt, hydrate or solvate; Patent Reference 1; cited from earlier work
[3] = test system: kainic acid neurotoxicity; settings: tautomer, salt, hydrate or solvate; Patent Reference 1; cited from earlier work
[4] = test system: audiogenic seizure; settings: DBA/2 mouse; tautomer, salt, hydrate or solvate; Patent Reference 1; cited from earlier work
[5] = Storage stability of the bulk; assay type: physicochemical; settings: should be refrigerated to ensure stability
[6] = test system: cerebral infarction; settings: focal cerebral ischemia model; Non-Patent References 1 and 2; cited from earlier work
[7] = Hygroscopicity test (time course weight changes under controlled relative humidity at 25° C.); assay type: physicochemical; design: Time course weight changes: unit not given here; settings: for Hygroscopicity: ˜0% to 93% RH, up to 7 days
Protocol: About 1 g each of the compound (I) and the compound (II) of anhydride compound A were weighed accurately in weighing bottles (seven) of known weight, then stored under the following conditions at 25° C., and time course weight changes were measured.
RH herein means relative humidity.

[8] = ˜0% RH (silica gel), 25° C., Day 1
[9] = ˜0% RH (silica gel), 25° C., Day 2
[10] = ˜0% RH (silica gel), 25° C., Day 4
[11] = ˜0% RH (silica gel), 25° C., Day 7

For `O=C(O)Cn1c(=O)c(=O)[nH]c2cc([N+](=O)[O-])c(-n3ccnc3)cc21` [compound A, [7-(1H-imidazol-1-yl)-6-nitro-2,3-dioxo-3,4-dihydroquinoxalin-1(2H)-yl]acetic acid], the Solubility ([1]; Patent Reference 1) is given as “excellent solubility”, the “Affinity for the AMPA receptor” value [2] is given as “high affinity” and the “Inhibitory action against kainic acid neurotoxicity” value [3] is given as “potent activities”. The “Anticonvulsant effect for audiogenic seizure” value [4] was “potent activities”.

For `O=C(O)Cn1c(=O)c(=O)[nH]c2cc([N+](=O)[O-])c(-n3ccnc3)cc21` [1 hydrate of the compound A, [7-(1H-imidazol-1-yl)-6-nitro-2,3-dioxo-3,4-dihydroquinoxalin-1(2H)-yl]acetic acid], the Water-solubility ([1]; Non-Patent References 1 and 2) is given as “high water-solubility”, the “Storage stability (impurities)” value [5] is given as “may increase impurities depending on storage condition” and the “Reducing effect on the volume of cerebral infarction” value [6] is given as “excellent reducing effect”.

For `O=C(O)Cn1c(=O)c(=O)[nH]c2cc([N+](=O)[O-])c(-n3ccnc3)cc21` [compound (II), [7-(1H-imidazol-1-yl)-6-nitro-2,3-dioxo-3,4-dihydroquinoxalin-1(2H)-yl]acetic acid], the Stability against humidity [7] was “unstable against humidity”, the “Time course weight changes” value ([7]; 33% RH, 25° C., Day 1) was 5.26 and the “Time course weight changes” value ([7]; 33% RH, 25° C., Day 2) was 5.29. For the same compound, the “Time course weight changes” value ([7]; 33% RH, 25° C., Day 4) was 5.32, the “Time course weight changes” value ([7]; 33% RH, 25° C., Day 7) was 5.33 and the “Time course weight changes” value ([7]; 51% RH, 25° C., Day 1) was 5.39. The “Time course weight changes” value ([7]; 51% RH, 25° C., Day 2) was 5.39, the “Time course weight changes” value ([7]; 51% RH, 25° C., Day 4) was 5.40 and the “Time course weight changes” value ([7]; 51% RH, 25° C., Day 7) was 5.38. For the same compound, the “Time course weight changes” value ([7]; 63.5% RH, 25° C., Day 1) was 5.47, the “Time course weight changes” value ([7]; 63.5% RH, 25° C., Day 2) was 5.47 and the “Time course weight changes” value ([7]; 63.5% RH, 25° C., Day 4) was 5.49. For the same compound, the “Time course weight changes” value ([7]; 63.5% RH, 25° C., Day 7) was 5.49, the “Time course weight changes” value ([7]; 75% RH, 25° C., Day 1) was 5.47 and the “Time course weight changes” value ([7]; 75% RH, 25° C., Day 2) was 5.47. For the same compound, the “Time course weight changes” value ([7]; 75% RH, 25° C., Day 4) was 5.51, the “Time course weight changes” value ([7]; 75% RH, 25° C., Day 7) was 5.46 and the “Time course weight changes” value ([7]; 84% RH, 25° C., Day 1) was 5.51. The “Time course weight changes” value ([7]; 84% RH, 25° C., Day 2) was 5.52, the “Time course weight changes” value ([7]; 84% RH, 25° C., Day 4) was 5.52 and the “Time course weight changes” value ([7]; 84% RH, 25° C., Day 7) was 5.51. For the same compound, the “Time course weight changes” value ([7]; 93% RH, 25° C., Day 1) was 5.52, the “Time course weight changes” value ([7]; 93% RH, 25° C., Day 2) was 5.49 and the “Time course weight changes” value ([7]; 93% RH, 25° C., Day 4) was 5.54. For the same compound, the “Time course weight changes” value ([7]; 93% RH, 25° C., Day 7) was 5.51, the Absorbed water ([7]; after one day, at least 33% RH or more, 25° C.) was 1 mol water per mol compound and the “Time course weight changes” value [7, 8] was 0.09. The “Time course weight changes” value [7, 9] was 0.08, the “Time course weight changes” value [7, 10] was 0.07 and the “Time course weight changes” value [7, 11] was 0.04. The Hygroscopicity ([7]; 25° C.) was “strong hygroscopicity”.

For `O=C(O)Cn1c(=O)c(=O)[nH]c2cc([N+](=O)[O-])c(-n3ccnc3)cc21` [compound (I), [7-(1H-imidazol-1-yl)-6-nitro-2,3-dioxo-3,4-dihydroquinoxalin-1(2H)-yl]acetic acid], the Stability against humidity [7] was “excellent stability against humidity”, the “Time course weight changes” value ([7]; 33% RH, 25° C., Day 1) was 0.09 and the “Time course weight changes” value ([7]; 33% RH, 25° C., Day 2) was 0.06. For the same compound, the “Time course weight changes” value ([7]; 33% RH, 25° C., Day 4) was 0.10, the “Time course weight changes” value ([7]; 33% RH, 25° C., Day 7) was 0.08 and the “Time course weight changes” value ([7]; 51% RH, 25° C., Day 1) was 0.03. The “Time course weight changes” value ([7]; 51% RH, 25° C., Day 2) was 0.04, the “Time course weight changes” value ([7]; 51% RH, 25° C., Day 4) was 0.10 and the “Time course weight changes” value ([7]; 51% RH, 25° C., Day 7) was 0.09. The “Time course weight changes” value ([7]; 63.5% RH, 25° C., Day 1) was 0.03, the “Time course weight changes” value ([7]; 63.5% RH, 25° C., Day 2) was 0.06 and the “Time course weight changes” value ([7]; 63.5% RH, 25° C., Day 4) was 0.10. The “Time course weight changes” value ([7]; 63.5% RH, 25° C., Day 7) was 0.11, the “Time course weight changes” value ([7]; 75% RH, 25° C., Day 1) was 0.04 and the “Time course weight changes” value ([7]; 75% RH, 25° C., Day 2) was 0.07. The “Time course weight changes” value ([7]; 75% RH, 25° C., Day 4) was 0.13, the “Time course weight changes” value ([7]; 75% RH, 25° C., Day 7) was 0.10 and the “Time course weight changes” value ([7]; 84% RH, 25° C., Day 1) was 0.05. The “Time course weight changes” value ([7]; 84% RH, 25° C., Day 2) was 0.09, the “Time course weight changes” value ([7]; 84% RH, 25° C., Day 4) was 0.11 and the “Time course weight changes” value ([7]; 84% RH, 25° C., Day 7) was 0.13. For the same compound, the “Time course weight changes” value ([7]; 93% RH, 25° C., Day 1) was 0.09, the “Time course weight changes” value ([7]; 93% RH, 25° C., Day 2) was 0.10 and the “Time course weight changes” value ([7]; 93% RH, 25° C., Day 4) was 0.15. The “Time course weight changes” value ([7]; 93% RH, 25° C., Day 7) was 0.13, the “Time course weight changes” value [7, 8] was 0.03 and the “Time course weight changes” value [7, 9] was −0.01. For the same compound, the “Time course weight changes” value [7, 10] was 0.02, the “Time course weight changes” value [7, 11] was 0.01 and the Hygroscopicity ([7]; 25° C.) was “stable under any relative humidity conditions almost without showing hygroscopicity”.
